Paper PMC6487875 (Biochemistry, 2018)

Tests used:
[1] = target: T1, GOT1 (glutamate oxaloacetate transaminase 1, aspartate aminotransferase 1) (Homo sapiens, UniProt P17174); test: GLOX/HRP-coupled GOT1 enzyme assay; format: biochemical
[2] = target: T1, GOT1 (glutamate oxaloacetate transaminase 1, aspartate aminotransferase 1); test: X-ray crystal structure, […] Å; format: binding
[3] = target: T1, GOT1 (glutamate oxaloacetate transaminase 1, aspartate aminotransferase 1); test: GLOX/HRP-coupled enzyme kinetics; format: biochemical

T1 sequence (P17174 2-413): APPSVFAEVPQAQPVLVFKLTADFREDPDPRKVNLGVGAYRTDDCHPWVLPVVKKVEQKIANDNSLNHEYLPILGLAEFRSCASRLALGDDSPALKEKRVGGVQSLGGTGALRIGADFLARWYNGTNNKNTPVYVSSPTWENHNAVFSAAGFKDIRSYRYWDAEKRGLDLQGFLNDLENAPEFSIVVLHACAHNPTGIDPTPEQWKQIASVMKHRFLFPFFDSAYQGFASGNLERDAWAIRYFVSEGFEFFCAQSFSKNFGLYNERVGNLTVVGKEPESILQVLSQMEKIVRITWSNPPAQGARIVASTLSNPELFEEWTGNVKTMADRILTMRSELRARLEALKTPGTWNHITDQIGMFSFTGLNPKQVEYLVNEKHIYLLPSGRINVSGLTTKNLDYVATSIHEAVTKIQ

O=C(Nc1ccccc1)N1CCN(c2cccc3[nH]ccc23)CC1 [iGOT1-01]
IC50 [1]: 11.3 µM

Cc1ncc(COP(=O)(O)O)c(C=O)c1O [PLP]
X-ray crystal structure, 2.10 Å [2]: The WT-GOT1 structure is a homodimer, each of which contains PLP.

O=C(O)CCC(=O)C(=O)O [α-ketoglutarate]
Km [3]: ~ 0.5 mM
